# Assay results as given in US12662479B2 (Foghorn Therapeutics Inc., priority 2020, dated 2026).
# Counter-ions that a name gives are not always drawn.
# Key:
# [1] = target: T1, HiBit-BRG1 fusion protein (Homo sapiens, UniProt P51532); test: HiBiT-BRG1 cell-based degradation assay (Nano-Glo HiBiT Lytic Detection, 24 h); conditions: HeLa cells expressing HiBit-BRG1 and LgBit; for DC50: read-out: BRG1 HiBit Degradation IC50; for Dmax: HeLa, top dose 30 μM, read-out: BRG1 HiBit Degradation Maximum measured
# T1 construct: expressed in transfected cells
# Summary of the method: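 Stable HeLa line expressing HiBiT-BRG1 and LgBiT, seeded at 5000 cells/well; luminescence read after lytic Nano-Glo HiBiT reagent and 10 min shaking at RT. % degradation normalised between DMSO (high control) and 2 μM reference BRM/BRG1 degrader (low control).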
# HiBit-BRM fusion protein = target: T2, HiBit-BRM fusion protein (Homo sapiens, UniProt P51531); test: HiBiT-BRM cell-based degradation assay (Nano-Glo HiBiT Lytic Detection, 24 h); conditions: HeLa cells expressing HiBiT-BRM; for DC50: read-out: BRM HiBit Degradation IC50; for BRM HiBit Degradation Maximum measured: top dose 30 μM
# T2 construct: expressed in transfected cells
# Summary of the method: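 HeLa cells stably expressing HiBiT-BRM were treated for 24 h with compounds (10-point 3-fold dilutions, 30 μM final top dose, in duplicate). HiBiT was detected by lytic LgBiT complementation luminescence. % degradation was normalized to DMSO (high control) and 2 μM of a reference BRM/BRG1 degrader (low control).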
# T2 sequence (P51531 whole entry, the tested form may be a part): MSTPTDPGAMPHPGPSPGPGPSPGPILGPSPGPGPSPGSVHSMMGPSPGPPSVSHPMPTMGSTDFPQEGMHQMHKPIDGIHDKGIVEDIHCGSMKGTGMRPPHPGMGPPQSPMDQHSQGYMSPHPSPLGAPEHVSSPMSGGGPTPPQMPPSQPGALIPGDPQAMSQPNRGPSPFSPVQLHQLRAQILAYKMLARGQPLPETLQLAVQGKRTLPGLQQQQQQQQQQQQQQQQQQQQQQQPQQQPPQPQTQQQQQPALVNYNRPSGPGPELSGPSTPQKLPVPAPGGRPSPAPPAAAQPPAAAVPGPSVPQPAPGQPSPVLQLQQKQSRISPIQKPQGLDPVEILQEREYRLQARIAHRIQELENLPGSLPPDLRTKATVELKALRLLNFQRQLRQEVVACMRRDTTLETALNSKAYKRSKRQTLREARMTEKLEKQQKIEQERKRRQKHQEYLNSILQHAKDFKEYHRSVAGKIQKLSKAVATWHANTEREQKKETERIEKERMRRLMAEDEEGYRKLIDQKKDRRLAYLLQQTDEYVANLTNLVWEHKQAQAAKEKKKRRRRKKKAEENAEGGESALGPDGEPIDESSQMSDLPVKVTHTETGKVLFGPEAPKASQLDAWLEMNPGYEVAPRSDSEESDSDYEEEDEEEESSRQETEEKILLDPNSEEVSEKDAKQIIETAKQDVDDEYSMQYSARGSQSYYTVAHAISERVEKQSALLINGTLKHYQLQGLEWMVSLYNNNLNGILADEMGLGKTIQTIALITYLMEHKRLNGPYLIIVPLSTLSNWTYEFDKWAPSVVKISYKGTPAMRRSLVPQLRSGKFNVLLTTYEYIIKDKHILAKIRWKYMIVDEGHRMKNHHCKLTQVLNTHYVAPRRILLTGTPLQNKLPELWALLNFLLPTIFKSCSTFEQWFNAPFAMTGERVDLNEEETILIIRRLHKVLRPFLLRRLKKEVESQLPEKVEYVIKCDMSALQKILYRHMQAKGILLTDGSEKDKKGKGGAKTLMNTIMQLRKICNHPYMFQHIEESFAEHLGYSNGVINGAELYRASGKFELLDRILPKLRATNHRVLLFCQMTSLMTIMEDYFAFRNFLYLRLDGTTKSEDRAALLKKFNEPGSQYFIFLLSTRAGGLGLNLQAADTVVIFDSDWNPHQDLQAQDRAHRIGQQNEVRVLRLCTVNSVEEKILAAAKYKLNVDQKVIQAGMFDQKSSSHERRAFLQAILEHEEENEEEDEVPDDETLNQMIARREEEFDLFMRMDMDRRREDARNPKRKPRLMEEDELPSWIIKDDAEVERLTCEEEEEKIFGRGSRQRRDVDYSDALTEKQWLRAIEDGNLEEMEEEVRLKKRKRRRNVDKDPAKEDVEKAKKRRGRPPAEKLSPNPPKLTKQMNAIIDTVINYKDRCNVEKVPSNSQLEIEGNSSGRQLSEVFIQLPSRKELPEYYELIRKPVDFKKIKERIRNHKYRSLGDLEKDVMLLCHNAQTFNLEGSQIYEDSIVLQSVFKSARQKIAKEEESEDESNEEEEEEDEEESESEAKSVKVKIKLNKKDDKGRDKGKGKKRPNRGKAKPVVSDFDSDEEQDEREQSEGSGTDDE
# T1 sequence (P51532 whole entry, the tested form may be a part): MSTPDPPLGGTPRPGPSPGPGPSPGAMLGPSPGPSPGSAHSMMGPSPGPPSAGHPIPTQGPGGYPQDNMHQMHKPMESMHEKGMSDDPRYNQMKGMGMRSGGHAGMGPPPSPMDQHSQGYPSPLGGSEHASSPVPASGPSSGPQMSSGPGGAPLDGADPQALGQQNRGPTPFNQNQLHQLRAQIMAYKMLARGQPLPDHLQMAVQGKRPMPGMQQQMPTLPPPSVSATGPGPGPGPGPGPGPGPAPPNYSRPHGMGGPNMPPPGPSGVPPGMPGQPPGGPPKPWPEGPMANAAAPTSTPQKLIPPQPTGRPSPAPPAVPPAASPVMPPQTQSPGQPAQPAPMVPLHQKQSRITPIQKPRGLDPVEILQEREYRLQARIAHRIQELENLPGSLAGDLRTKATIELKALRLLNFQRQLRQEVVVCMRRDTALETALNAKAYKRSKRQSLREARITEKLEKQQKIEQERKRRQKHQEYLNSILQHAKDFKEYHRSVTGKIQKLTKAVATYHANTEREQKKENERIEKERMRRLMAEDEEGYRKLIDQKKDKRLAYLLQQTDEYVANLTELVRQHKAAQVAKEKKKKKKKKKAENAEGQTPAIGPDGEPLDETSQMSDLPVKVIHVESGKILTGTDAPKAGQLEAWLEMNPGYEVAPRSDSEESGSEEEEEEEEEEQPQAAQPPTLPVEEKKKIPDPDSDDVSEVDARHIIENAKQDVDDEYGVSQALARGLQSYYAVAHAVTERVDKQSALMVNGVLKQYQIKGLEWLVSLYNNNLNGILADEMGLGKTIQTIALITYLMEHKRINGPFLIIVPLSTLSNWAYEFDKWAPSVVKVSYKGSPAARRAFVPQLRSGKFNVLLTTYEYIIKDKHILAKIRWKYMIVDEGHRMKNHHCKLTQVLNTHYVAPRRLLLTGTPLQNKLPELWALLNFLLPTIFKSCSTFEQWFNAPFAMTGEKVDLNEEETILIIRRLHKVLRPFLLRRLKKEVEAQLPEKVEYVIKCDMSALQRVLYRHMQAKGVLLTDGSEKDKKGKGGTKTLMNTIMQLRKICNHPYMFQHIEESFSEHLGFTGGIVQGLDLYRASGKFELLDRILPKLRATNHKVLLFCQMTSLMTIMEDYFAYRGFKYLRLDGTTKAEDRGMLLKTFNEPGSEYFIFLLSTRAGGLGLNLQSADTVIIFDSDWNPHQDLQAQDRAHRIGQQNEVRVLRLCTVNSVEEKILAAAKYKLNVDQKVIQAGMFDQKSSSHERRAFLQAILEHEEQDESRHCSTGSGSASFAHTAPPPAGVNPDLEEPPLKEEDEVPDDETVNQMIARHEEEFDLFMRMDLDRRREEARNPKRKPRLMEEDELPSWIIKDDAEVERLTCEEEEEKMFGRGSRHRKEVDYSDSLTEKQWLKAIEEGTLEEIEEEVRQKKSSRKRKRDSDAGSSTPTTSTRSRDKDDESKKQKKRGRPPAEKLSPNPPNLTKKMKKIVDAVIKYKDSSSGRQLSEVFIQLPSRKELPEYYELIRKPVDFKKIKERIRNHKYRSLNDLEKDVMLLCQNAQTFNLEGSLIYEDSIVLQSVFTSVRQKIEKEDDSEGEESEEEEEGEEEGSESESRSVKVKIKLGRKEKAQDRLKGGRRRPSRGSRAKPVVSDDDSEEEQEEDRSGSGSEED
DC50 [1],Dmax [1],DC50 (HiBit-BRM fusion protein),BRM HiBit Degradation Maximum measured (HiBit-BRM fusion protein),Structure (SMILES)
< 100 nM,50 to 75%,> 10000 nM,C (‘C’ = Maximum degradation <50%),"CS(=O)(=O)n1ccc(C(=O)NCC(=O)Nc2nc(-c3cccc(-c4ccnc(C5(C(=O)N6CCC7(CC6)CC(Oc6ccc8c(c6)C(=O)N(C6CCC(=O)NC6=O)C8=O)C7)CC5)c4)c3)cs2)c1 (stereo not shown) [Compound 151, N-[4-(3-[2-[1-(2-[[2-(2,6-dioxopiperidin-3-yl)-1,3-dioxoisoindol-5-yl]oxy]-7-azaspiro[3.5]nonane-7-carbonyl)cyclopropyl]pyridin-4-yl]phenyl)-1,3-thiazol-2-yl]-2-[(1-methanesulfonylpyrrol-3-yl)formamido]acetamide]"
> 10000 nM,< 50%,> 10000 nM,C (‘C’ = Maximum degradation <50%),"CS(=O)(=O)n1ccc(C(=O)NCC(=O)Nc2nc(-c3cccc(-c4ccnc(C5(C(=O)NCCCC#Cc6cccc7c6C(=O)N(C6CCC(=O)NC6=O)C7=O)CC5)c4)c3)cs2)c1 (stereo not shown) [Compound 152, N-[5-[2-(2,6-dioxopiperidin-3-yl)-1,3-dioxoisoindol-4-yl]pent-4-yn-1-yl]-1-[4-[3-(2-[2-[(1-methanesulfonylpyrrol-3-yl)formamido]acetamido]-1,3-thiazol-4-yl)phenyl]pyridin-2-yl]cyclopropane-1-carboxamide]"
100 to 1000 nM,> 75%,100 to 1000 nM,A (‘A’ = Maximum degradation >75%),"CS(=O)(=O)n1ccc(C(=O)NCC(=O)Nc2nc(-c3cccc(-c4ccnc(C5(C(=O)N6CC(CN7CCN(c8ccc9c(c8)C(=O)N(C8CCC(=O)NC8=O)C9=O)CC7)C6)CC5)c4)c3)cs2)c1 (stereo not shown) [Compound 156, N-[4-[3-(2-[1-[3-([4-[2-(2,6-dioxopiperidin-3-yl)-1,3-dioxoisoindol-5-yl]piperazin-1-yl]methyl)azetidine-1-carbonyl]cyclopropyl]pyridin-4-yl)phenyl]-1,3-thiazol-2-yl]-2-[(1-methanesulfonylpyrrol-3-yl)formamido]acetamide]"
> 10000 nM,< 50%,> 10000 nM,C (‘C’ = Maximum degradation <50%),"Cc1ncsc1-c1ccc(CNC(=O)[C@@H]2C[C@@H](O)CN2C(=O)[C@@H](NC(=O)CN2CC(C(=O)NCc3cccc(-c4cccc(-c5csc(NC(=O)CNC(=O)c6ccn(S(C)(=O)=O)c6)n5)c4)c3)C2)C(C)(C)C)cc1 [Compound 157, (2S,4R)-4-hydroxy-1-[(2S)-2-[2-[3-([[3-(2-[2-[(1-methan-esulfonyl-pyrrol-3-yl)formamido]acetamido]-1,3-thiazol-4-yl)-[1,1-biphenyl]-3-yl]methyl]carbamoyl)azetidin-1-yl]acetamido]-3,3-dimethylbutanoyl]-N-[[4-(4-methyl-1,3-thiazol-5-yl)phenyl]methyl]pyrr-oledine-2-carboxamide]"
> 10000 nM,< 50%,> 10000 nM,C (‘C’ = Maximum degradation <50%),"Cc1ncsc1-c1ccc(CNC(=O)[C@@H]2C[C@@H](O)CN2C(=O)[C@@H](NC(=O)NCc2cccc(-c3cccc(-c4csc(NC(=O)CNC(=O)c5ccn(S(C)(=O)=O)c5)n4)c3)c2)C(C)(C)C)cc1 [Compound 158, (2S,4R)-4-hydroxy-1-[(2S)-2-[([[3-(2-[2-[(1-methanesulfonylpyrrol-3-yl)formamido]acetamido]-1,3-thiazol-4-yl)-[1,1-biphenyl]-3-yl]methyl]carbamoyl)amino]-3,3-dimethylbutanoyl]-N-[[4-(4-methyl-1,3-thiazol-5-yl)phenyl]methyl]pyrrolidine-2-carboxamide]"

Structure (SMILES),DC50 [1],Dmax [1],DC50 (HiBit-BRM fusion protein),BRM HiBit Degradation Maximum measured (HiBit-BRM fusion protein)
"CS(=O)(=O)n1ccc(C(=O)NCC(=O)Nc2nc(-c3cccc(-c4ccnc(C5(C(=O)N6CCN(CCOc7ccc8c(c7)C(=O)N(C7CCC(=O)NC7=O)C8=O)CC6)CC5)c4)c3)cs2)c1 (stereo not shown) [Compound 150, N-(2-((4-(3-(2-(1-(4-(2-((2-(2,6-dioxopiperidin-3-yl)-1,3-dioxoisoindolin-5-yl)oxy)ethyl)piperazine-1-carbonyl)cyclopropyl)pyridin-4-yl)phenyl)thiazol-2-yl)amino)-2-oxoethyl)-1-(methylsulfonyl)-1H-pyrrole-3-carboxamide]",100 to 1000 nM,> 75%,100 to 1000 nM,B (‘B’ = Maximum degradation ≥50% and ≤75%)
"Cc1ncsc1-c1ccc(CNC(=O)[C@@H]2C[C@@H](O)CN2C(=O)[C@@H](NC(=O)CCCCCCC(=O)N(C)Cc2cc(-c3cccc(-c4csc(NC(=O)CNC(=O)c5ccn(S(C)(=O)=O)c5)n4)c3)ccn2)C(C)(C)C)cc1 [Compound 153, N-[(2S)-1-[(2S,4R)-4-hydroxy-2-([[4-(4-methyl-1,3-thiazol-5-yl)phenyl]methyl]carbamoyl)pyrrolidin-1-yl]-3,3-dimethyl-1-oxobutan-2-yl]-N′-([4-[3-(2-[2-[(1-methanesulfonylpyrrol-3-yl)formamido]acetamido]-1,3-thiazol-4-yl)phenyl]pyridin-2-yl]methyl)-N′-methyloctanediamide]",100 to 1000 nM,> 75%,100 to 1000 nM,B (‘B’ = Maximum degradation ≥50% and ≤75%)
"Cc1ncsc1-c1ccc(CNC(=O)[C@@H]2C[C@@H](O)CN2C(=O)[C@@H](NC(=O)CCN2CC(C(=O)NCc3cccc(-c4cccc(-c5csc(NC(=O)CNC(=O)c6ccn(S(C)(=O)=O)c6)n5)c4)c3)C2)C(C)(C)C)cc1 [Compound 154, (2S,4R)-4-hydroxy-1-[(2S)-2-[3-[3-([[3-(2-[2-[(1-methanesulfonylpyrrol-3-yl)formamido]acetamido]-1,3-thiazol-4-yl)-[1,1-biphenyl]-3-yl]methyl]carbamoyl)azetidin-1-yl]propanamido]-3,3-dimethylbutanoyl]-N-[[4-(4-methyl-1,3-thiazol-5-yl)phenyl]methyl]pyrrolidine-2-carboxamide formate]",> 10000 nM,–,> 10000 nM,C (‘C’ = Maximum degradation <50%)
"Cc1ncsc1-c1ccc(CNC(=O)[C@@H]2C[C@@H](O)CN2C(=O)[C@@H](NC(=O)CCN2CCC(C(=O)NCc3cccc(-c4cccc(-c5csc(NC(=O)CNC(=O)c6ccn(S(C)(=O)=O)c6)n5)c4)c3)CC2)C(C)(C)C)cc1 [Compound 155, 1-(2-[[(2S)-1-[(2S,4R)-4-hydroxy-2-([[4-(4-methyl-1,3-thiazol-5-yl)phenyl]methyl]carbamoyl)pyrrolidin-1-yl]-3,3-dimethyl-1-oxobutan-2-yl]carbamoyl]ethyl)-N-[[3-(2-[2-[(1-methanesulfonylpyrrol-3-yl)formamido]acetamido]-1,3-thiazol-4-yl)-[1,1-biphenyl]-3-yl]methyl]piperidine-4-carboxamide formate]",> 10000 nM,–,> 10000 nM,C (‘C’ = Maximum degradation <50%)
